Active and inactive are the calls of the source. No cut-off for these calls is given here.
Experiments:
Staphylococcus aureus [1] = test: Disruption of membrane integrity in methicillin-resistant Staphylococcus aureus ATCC 19498 assessed as shrinking of cell membrane at MIC incubated for 24 hrs by scanning electron microscopy; type: functional, organism-based
[2] = Hemolytic activity in mouse Erythrocyte at 640 ug/ml incubated for 1 hr relative to control; type: ADME, cell-based; details: mouse erythrocytes, read-out: %max
Staphylococcus aureus [3] = test: Inhibition of biofilm formation in methicillin-resistant Staphylococcus aureus ATCC 18466 at MIC incubated for 24 hrs by scanning electron microscopy; type: functional, organism-based
[4] = Hemolytic activity in mouse Erythrocyte assessed as HC50 incubated for 1 hr; type: ADME, cell-based; details: mouse erythrocytes
[5] = Stability in MRSA supernatant at 20 uM incubated for 24 hrs by HPLC-MS analysis; type: physicochemical
Candida albicans = test: Antifungal activity against Candida albicans ATCC 5314 assessed as reduction in fungal growth incubated for 24 hrs by serial dilution method; type: functional; details: ATCC 5314, 24 h, read-out: MIC
[6] = Stability in mouse plasma at 20 uM incubated for 12 hrs by HPLC-MS analysis; type: ADME, cell-free
Staphylococcus aureus [7] = test: Inhibition of biofilm formation in methicillin-resistant Staphylococcus aureus ATCC 19498 at MIC incubated for 24 hrs by scanning electron microscopy; type: functional, organism-based
Staphylococcus aureus [8] = test: Disruption of membrane integrity in Staphylococcus aureus ATCC 25923 assessed as invagination of cell membrane at MIC incubated for 24 hrs by scanning electron microscopy; type: functional, organism-based
Staphylococcus aureus [9] = test: Inhibition of biofilm formation in methicillin-resistant Staphylococcus aureus ATCC 19498 assessed as downregulation of […] gene at MIC incubated for 1 hr by qRT-PCR; type: functional, organism-based
Staphylococcus aureus [10] = test: Inhibition of biofilm formation in Staphylococcus aureus ATCC 25923 assessed as downregulation of spa gene at MIC incubated for 1 hr by qRT-PCR; type: functional, organism-based
[11] = Cytotoxicity against human HEK293T cells assessed as cell viability at 5 to 640 ug/ml incubated for 48 hrs by MTT assay relative to control; type: cell-based, HEK-293T; details: read-out: Activity
Staphylococcus aureus [12] = test: Disruption of membrane integrity in Staphylococcus aureus ATCC 29213 assessed as decrease in cell volume at MIC incubated for 24 hrs by scanning electron microscopy; type: functional, organism-based
Staphylococcus aureus [13] = test: Inhibition of biofilm formation in methicillin-resistant Staphylococcus aureus ATCC 18466 assessed as downregulation of hld gene at MIC incubated for 1 hr by qRT-PCR; type: functional, organism-based
Staphylococcus aureus [14] = test: Inhibition of biofilm formation in Staphylococcus aureus ATCC 25923 assessed as downregulation of […] gene at MIC incubated for 1 hr by qRT-PCR; type: functional, organism-based
Staphylococcus aureus [15] = test: Disruption of membrane integrity in methicillin-resistant Staphylococcus aureus ATCC 18466 assessed as shrinking of cell membrane at MIC incubated for 24 hrs by scanning electron microscopy; type: functional, organism-based
Staphylococcus aureus [16] = test: Disruption of membrane integrity in Staphylococcus aureus ATCC 25923 assessed as decrease in cell volume at MIC incubated for 24 hrs by scanning electron microscopy; type: functional, organism-based
Staphylococcus aureus [17] = test: Disruption of membrane integrity in methicillin-resistant Staphylococcus aureus ATCC 18466 assessed as extravasation of cytoplasmic content at MIC incubated for 24 hrs by scanning electron microscopy; type: functional, organism-based
Staphylococcus aureus [18] = test: Inhibition of biofilm formation in methicillin-resistant Staphylococcus aureus ATCC 19498 assessed as downregulation of spa gene at MIC incubated for 1 hr by qRT-PCR; type: functional, organism-based
Erythrocyte = test: Hemolytic activity in mouse Erythrocyte assessed as HC10 incubated for 1 hr; type: ADME, cell-based
Staphylococcus aureus [19] = test: Disruption of membrane integrity in methicillin-resistant Staphylococcus aureus ATCC 19498 assessed as extravasation of cytoplasmic content at MIC incubated for 24 hrs by scanning electron microscopy; type: functional, organism-based
Staphylococcus aureus [20] = test: Inhibition of biofilm formation in Staphylococcus aureus ATCC 29213 assessed as downregulation of spa gene at MIC incubated for 1 hr by qRT-PCR; type: functional, organism-based
Streptococcus sanguinis = test: Antibacterial activity against Streptococcus sanguinis ATCC 10556 assessed as reduction in bacterial growth incubated for 24 hrs by serial dilution method; type: functional; details: ATCC 10556, 24 h, read-out: MIC
Staphylococcus aureus [21] = test: Inhibition of biofilm formation in methicillin-resistant Staphylococcus aureus ATCC 18466 assessed as downregulation of mecA gene at MIC incubated for 1 hr by qRT-PCR; type: functional, organism-based
Staphylococcus aureus [22] = test: Disruption of membrane integrity in Staphylococcus aureus ATCC 29213 assessed as perforation of cell membrane at MIC incubated for 24 hrs by scanning electron microscopy; type: functional, organism-based
Staphylococcus aureus [23] = test: Antibacterial activity against Staphylococcus aureus ATCC 29213 assessed as reduction in bacterial growth at MIC measured after 15 passages; type: functional
Staphylococcus aureus [24] = test: Disruption of membrane integrity in Staphylococcus aureus ATCC 25923 assessed as extravasation of cytoplasmic content at MIC incubated for 24 hrs by scanning electron microscopy; type: functional, organism-based
Staphylococcus aureus [25] = test: Disruption of membrane integrity in methicillin-resistant Staphylococcus aureus ATCC 19498 assessed as invagination of cell membrane at MIC incubated for 24 hrs by scanning electron microscopy; type: functional, organism-based
Staphylococcus aureus [26] = test: Inhibition of biofilm formation in Staphylococcus aureus ATCC 25923 assessed as downregulation of mecA gene at MIC incubated for 1 hr by qRT-PCR; type: functional, organism-based
[27] = Stability in mouse plasma at 20 uM incubated for 24 hrs by HPLC-MS analysis; type: ADME, cell-free
Staphylococcus aureus [28] = test: Antibacterial activity against Staphylococcus aureus ATCC 25923 assessed as reduction in bacterial growth incubated for 24 hrs by serial dilution method; type: functional; details: ATCC 25923, 24 h, read-out: MIC
Staphylococcus aureus [29] = test: Disruption of membrane integrity in methicillin-resistant Staphylococcus aureus ATCC 19498 assessed as decrease in cell volume at MIC incubated for 24 hrs by scanning electron microscopy; type: functional, organism-based
Staphylococcus aureus [30] = test: Disruption of membrane integrity in methicillin-resistant Staphylococcus aureus ATCC 19498 assessed as perforation of cell membrane at MIC incubated for 24 hrs by scanning electron microscopy; type: functional, organism-based
Staphylococcus aureus [31] = test: Inhibition of biofilm formation in Staphylococcus aureus ATCC 29213 at MIC incubated for 24 hrs by scanning electron microscopy; type: functional, organism-based
Staphylococcus aureus [32] = test: Disruption of membrane integrity in methicillin-resistant Staphylococcus aureus ATCC 18466 assessed as cell membrane damage at MIC incubated for 24 hrs by scanning electron microscopy; type: functional, organism-based
Staphylococcus aureus [33] = test: Inhibition of biofilm formation in methicillin-resistant Staphylococcus aureus ATCC 18466 assessed as downregulation of […] gene at MIC incubated for 1 hr by qRT-PCR; type: functional, organism-based
Staphylococcus aureus [34] = test: Disruption of membrane integrity in Staphylococcus aureus ATCC 29213 assessed as cell membrane damage at MIC incubated for 24 hrs by scanning electron microscopy; type: functional, organism-based
Staphylococcus aureus [35] = test: Disruption of membrane integrity in methicillin-resistant Staphylococcus aureus ATCC 18466 assessed as decrease in cell volume at MIC incubated for 24 hrs by scanning electron microscopy; type: functional, organism-based
Staphylococcus aureus [36] = test: Antibacterial activity against Staphylococcus aureus ATCC 25923 assessed as reduction in bacterial growth at MIC measured after 15 passages; type: functional

Question: Which results are given for H-SYERKINRHFKTLKKNLKKK-NH2?
Answer: Activity (Staphylococcus aureus [1]): Active; hemolysis at 1 h, 640 ug/ml [2]: 7.06%; inhibition (Staphylococcus aureus [3]): Active; HC50 at 1 h [4]: > 640 µg/mL; Stability [5]: Stable; MIC (Candida albicans): 64 µg/mL; Stability [6]: Stable; inhibition (Staphylococcus aureus [7]): Active; Activity (Staphylococcus aureus [8]): Active; inhibition (Staphylococcus aureus [9]): Active; inhibition (Staphylococcus aureus [10]): Active; viability at 48 h [11]: 70 to 80%; Activity (Staphylococcus aureus [12]): Active; inhibition (Staphylococcus aureus [13]): Active; inhibition (Staphylococcus aureus [14]): Active; Activity (Staphylococcus aureus [15]): Active; Activity (Staphylococcus aureus [16]): Active; Activity (Staphylococcus aureus [17]): Active; inhibition (Staphylococcus aureus [18]): Active; HC10 (Erythrocyte): > 640 µg/mL; Activity (Staphylococcus aureus [19]): Active; inhibition (Staphylococcus aureus [20]): Active; MIC (Streptococcus sanguinis): < 64 µg/mL; inhibition (Staphylococcus aureus [21]): inactive; Activity (Staphylococcus aureus [22]): Active; Activity (Staphylococcus aureus [23]): Active; Activity (Staphylococcus aureus [24]): Active; Activity (Staphylococcus aureus [25]): Active; inhibition (Staphylococcus aureus [26]): inactive; Stability [27]: Unstable; MIC (Staphylococcus aureus [28]): 32 µg/mL; Activity (Staphylococcus aureus [29]): Active; Activity (Staphylococcus aureus [30]): Active; inhibition (Staphylococcus aureus [31]): Active; Activity (Staphylococcus aureus [32]): Active; inhibition (Staphylococcus aureus [33]): Active; Activity (Staphylococcus aureus [34]): Active; Activity (Staphylococcus aureus [35]): Active; Activity (Staphylococcus aureus [36]): Active

Question: Which Activity (Staphylococcus aureus [1]) does the source give for H-YIRKIRRFFKKLKKILKK-NH2 here?
Answer: Active

Question: And the hemolysis at 1 h, 640 ug/ml [2]?
Answer: 10.3%

Question: What about the inhibition (Staphylococcus aureus [3]) of the same substance?
Answer: Active

Question: What about the HC50 at 1 h [4] of the same substance?
Answer: > 640 µg/mL

Question: What about the Stability [5] of the same substance?
Answer: Stable

Question: And the MIC (Candida albicans)?
Answer: 32 µg/mL

Question: And the Stability [6]?
Answer: Stable

Question: And the inhibition (Staphylococcus aureus [7])?
Answer: Active

Question: What about the Activity (Staphylococcus aureus [8]) of the same substance?
Answer: Active

Question: What about the inhibition (Staphylococcus aureus [9]) of the same substance?
Answer: Active

Question: And the inhibition (Staphylococcus aureus [10])?
Answer: Active

Question: And the viability at 48 h [11]?
Answer: 70 to 80%

Question: And the Activity (Staphylococcus aureus [12])?
Answer: Active

Question: What about the inhibition (Staphylococcus aureus [13]) of the same substance?
Answer: Active

Question: And the inhibition (Staphylococcus aureus [14])?
Answer: Active

Question: What about the Activity (Staphylococcus aureus [15]) of the same substance?
Answer: Active

Question: What about the Activity (Staphylococcus aureus [16]) of the same substance?
Answer: Active

Question: And the Activity (Staphylococcus aureus [17])?
Answer: Active

Question: What about the inhibition (Staphylococcus aureus [18]) of the same substance?
Answer: Active

Question: What about the HC10 (Erythrocyte) of the same substance?
Answer: 640 µg/mL

Question: And the Activity (Staphylococcus aureus [19])?
Answer: Active

Question: What about the inhibition (Staphylococcus aureus [20]) of the same substance?
Answer: Active

Question: What about the MIC (Streptococcus sanguinis) of the same substance?
Answer: < 64 µg/mL

Question: What about the inhibition (Staphylococcus aureus [21]) of the same substance?
Answer: inactive

Question: What about the Activity (Staphylococcus aureus [22]) of the same substance?
Answer: Active

Question: And the Activity (Staphylococcus aureus [23])?
Answer: Active

Question: And the Activity (Staphylococcus aureus [24])?
Answer: Active

Question: What about the Activity (Staphylococcus aureus [25]) of the same substance?
Answer: Active

Question: What about the inhibition (Staphylococcus aureus [26]) of the same substance?
Answer: inactive

Question: And the Stability [27]?
Answer: Unstable

Question: And the MIC (Staphylococcus aureus [28])?
Answer: 8 µg/mL

Question: What about the Activity (Staphylococcus aureus [29]) of the same substance?
Answer: Active

Question: And the Activity (Staphylococcus aureus [30])?
Answer: Active

Question: What about the inhibition (Staphylococcus aureus [31]) of the same substance?
Answer: Active

Question: And the Activity (Staphylococcus aureus [32])?
Answer: Active

Question: What about the inhibition (Staphylococcus aureus [33]) of the same substance?
Answer: Active

Question: What about the Activity (Staphylococcus aureus [34]) of the same substance?
Answer: Active

Question: What about the Activity (Staphylococcus aureus [35]) of the same substance?
Answer: Active

Question: And the Activity (Staphylococcus aureus [36])?
Answer: Active
